Results as given in paper PMC4060991, “The Human Orphan Nuclear Receptor Tailless (TLX, NR2E1) Is Druggable” (PLoS ONE, 2014).

Experiments:
human LXRβ LBD = molecular target: T1, human LXRβ LBD (Homo sapiens, UniProt P55055); test: DSF on purified LXRβ LBD; format: binding; conditions: compound 500 µM; unliganded Tm ∼39°C
T1 construct: human LXRβ LBD (Liver X Receptor beta, a.a. 226–460) was expressed; His6 followed by TEV protease cleavage site (N); made in house; host or cells: E. coli BL21 (DE3) star
T1 sequence (P55055 226-460): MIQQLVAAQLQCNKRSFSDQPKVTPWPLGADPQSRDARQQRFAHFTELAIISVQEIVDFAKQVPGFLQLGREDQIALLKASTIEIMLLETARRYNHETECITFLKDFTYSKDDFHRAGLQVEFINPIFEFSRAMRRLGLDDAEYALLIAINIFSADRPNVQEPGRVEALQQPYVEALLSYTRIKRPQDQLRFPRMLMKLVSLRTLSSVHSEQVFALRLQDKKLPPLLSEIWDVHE
Experimental: Protein stability was assessed with DSF in absence or presence of test compounds in a LightCycler 480 II qRT-PCR Detection System (Roche) in 384-well format. Sypro-Orange dye (Life Technologies) was used to monitor fluorescence, with filters for fluorescence excitation at 465 nm and for fluorescence emission at 610 nm. […] Tested sample mixtures were heated from 25°C to 96°C at a rate of 0.05°C/sec with 11 acquisitions per °C. Each compound was tested in duplicates. The melting temperature (Tm) for each sample was deduced by the ThermoQ Analytical software (HMRI) from the first derivative of the corresponding denaturation curve generated by the LightCycler 480 software. The same protocol was applied to investigate the stability of purified ERβ and LXRβ LBDs in presence or absence of the compounds. The optimal final concentrations for these experiments were 0.02 mg/mL for ERβ LBD and 0.20 mg/mL for LXRβ LBD. All DSF-based analyses were performed using freshly purified protein.

GAL4 DBD vector = test: Luciferase assay in HeLa cells transfected with empty GAL4 DBD vector (absence of TLX); format: cell-based, human; conditions: different concentrations, 16 h
Experimental: HeLa cells were maintained in D-MEM High Glucose (Hyclone) supplemented with 10% charcoal:dextran stripped FBS (Hyclone) and 1x Pen/Strep antibiotics (Life Technologies). Transient transfections were carried out in batches on 100,000 cells seeded into 12-well tissue culture plates. The co-transfections were performed using the TransFectin Lipid reagent (Bio-Rad) with approximately 10 ng/well of Gal4 DBD (gift from Phuong Nguyen, Fletterick Laboratory, UCSF) or GAL4-TLX LBD, 10 ng/well of renilla luciferase gene (Promega) for internal control and 200 ng/well of pGL4.35 reporter gene (containing an upstream Gal4 Upstream Activator Sequence and the luciferase gene, Promega). Approximately, 3 h after transfections, cells were treated with compounds of interest at different concentrations, or solvent (DMSO, 0.1%) in DMEM containing no fetal bovine serum or antibiotics. After a 16-h incubation, luciferase activities were assessed using Dual Luciferase assay reagent (Promega). Luciferase activities were calculated by normalizing firefly luciferase to renilla luciferase signal. […] Cells transfected with Gal4 DBD vector served as a control for TLX independent effects.

TLX LBD = TLX LBD (Homo sapiens, UniProt Q9Y466); test: Differential scanning fluorimetry (DSF) on purified TLX LBD;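 note: thermal unfolding followed by Sypro-Orange fluorescence (excitation 465 nm, emission 610 nm) in 384-well plates, Tm taken from the first derivative of the denaturation curve, duplicate samples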; format: binding; parameters: cDNA fragments encoding human TLX LBD (a.a. 187–385) were cloned; His6 followed by TEV protease cleavage site (N); made in house; host or cells: E. coli BL21 (DE3) star; conditions: compound 500 µM; reference Tm 58.8±0.3°C with 5% DMSO
TLX LBD, sequence (Q9Y466 187-385): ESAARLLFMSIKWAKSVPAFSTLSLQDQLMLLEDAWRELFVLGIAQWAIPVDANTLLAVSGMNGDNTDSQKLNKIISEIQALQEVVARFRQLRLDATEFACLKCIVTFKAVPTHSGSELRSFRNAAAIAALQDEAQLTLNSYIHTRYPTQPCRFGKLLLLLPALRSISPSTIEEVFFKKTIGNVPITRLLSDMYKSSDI
Experimental: Protein stability was assessed with DSF in absence or presence of test compounds in a LightCycler 480 II qRT-PCR Detection System (Roche) in 384-well format. Sypro-Orange dye (Life Technologies) was used to monitor fluorescence, with filters for fluorescence excitation at 465 nm and for fluorescence emission at 610 nm. […] Each compound was tested in duplicates. The melting temperature (Tm) for each sample was deduced by the ThermoQ Analytical software (HMRI) from the first derivative of the corresponding denaturation curve generated by the LightCycler 480 software. […] All DSF-based analyses were performed using freshly purified protein.

COUP-TFII LBD = molecular target: T2, COUP-TFII LBD (Homo sapiens, UniProt P24468); test: GAL4 DBD-COUP-TFII LBD luciferase transactivation assay in HeLa cells; format: cell-based; conditions: 10 µM, 24 h, alone or in competition with 9-cis retinoic acid 5 µM
T2 construct: expressed in transfected cells; host or cells: HeLa
T2 sequence (P24468 177-403 limits assumed): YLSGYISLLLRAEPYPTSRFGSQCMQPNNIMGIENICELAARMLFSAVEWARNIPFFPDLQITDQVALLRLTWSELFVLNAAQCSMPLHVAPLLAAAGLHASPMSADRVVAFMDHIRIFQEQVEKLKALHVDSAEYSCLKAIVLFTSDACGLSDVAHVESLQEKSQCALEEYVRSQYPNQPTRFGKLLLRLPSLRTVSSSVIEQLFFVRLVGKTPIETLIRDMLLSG
Experimental: For the transactivation assays with the GAL4 DBD-COUP-TFII LBD plasmid ([28], gift from Dr. H. Eric Xu, Van Andel Institute), we transiently transfected in batches of 10^5 HeLa cells seeded into 12-well tissue culture plates vectors encoding either Gal4 DBD or Gal4 DBD-COUP-TFII LBD fusion (both at 100 ng/well), pGL4.35 reporter gene (200 ng/well) and renilla luciferase gene (100 ng/well, internal control). At 24 h after the transfections, cells were treated with either DMSO (0.1%, control) or compounds ccrp1, ccrp2 or ccrp3 at 10 µM, in the absence or the presence of 9-cis retinoic acid (RA, 5 µM). Following 24 h incubation, luciferase activities in each well were assessed as described above. Cells transfected with Gal4 DBD vector served as a control for COUP-TFII independent effects.

human PNR (NR2E3) LBD = molecular target: T3, human PNR (NR2E3) LBD (Homo sapiens, UniProt Q9Y5X4); test: GAL4-PNR LBD luciferase transactivation assay in HeLa cells; format: cell-based; conditions: 10 µM, 24 h
T3 construct: expressed in transfected cells; host or cells: HeLa
T3 sequence (Q9Y5X4 192-410): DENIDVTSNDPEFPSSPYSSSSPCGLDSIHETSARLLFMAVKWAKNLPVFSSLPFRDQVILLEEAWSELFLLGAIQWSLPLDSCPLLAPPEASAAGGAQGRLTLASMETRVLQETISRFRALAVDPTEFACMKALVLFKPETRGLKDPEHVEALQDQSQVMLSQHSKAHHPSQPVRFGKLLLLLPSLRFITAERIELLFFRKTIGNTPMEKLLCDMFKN
Experimental: For the transactivation assays involving human PNR (Photoreceptor cell-specific Nuclear Receptor, NR2E3) LBD, we used an already described pBIND-PNR LBD (residues 192–410, [37]) plasmid (gift from Dr. H. Eric Xu, Van Andel Institute). The transient co-transfections of HeLa cells with vectors encoding either Gal4DBD or pBIND-PNR LBD fusion (both at 50 ng/well), pGL4.35 reporter gene (200 ng/well) and renilla luciferase gene (50 ng/well, internal control) were performed in batches of 10^5 cells seeded into 12-well tissue culture plates. Twenty-four hours after the transfections, cells were treated with either DMSO (0.1%, control) or compounds ccrp1, ccrp2 or ccrp3 at 10 µM. Following 24 h incubation, luciferase activities in each well were assessed as described above. Cells transfected with Gal4 DBD vector served as a control for PNR independent effects.

SMILES | melting temperature shift of LXRβ LBD (human LXRβ LBD) | effect on luciferase activities in absence of TLX (GAL4 DBD vector) | melting temperature (Tm) of TLX LBD in presence of compound (TLX LBD) [°C] | effect on COUP-TFII luciferase activity (COUP-TFII LBD) | effect on PNR transcriptional activity (human PNR (NR2E3) LBD)
CC(C)c1c(CN(C)C(C)Cc2ccccc2)n(C)n(-c2ccccc2)c1=O (stereo not drawn) [ccrp1, Famprofazone] | Neither compound demonstrates any significant effect on the melting temperatures | do not affect the luciferase activities | 53.04±0.3 | No effect on luciferase activity was detected | None of the compounds affected PNR transcriptional activity
Cc1cc(C(=O)N2CCN(C(c3ccccc3)c3ccccc3)CC2)nn1C [ccrp2, 1-(1,5-dimethylpyrazole-3-carbonyl)-4-(diphenylmethyl)piperazine] | Neither compound demonstrates any significant effect on the melting temperatures | do not affect the luciferase activities | 52.49±1.1 | No effect on luciferase activity was detected | None of the compounds affected PNR transcriptional activity
CC(=O)[C@H]1CC[C@H]2[C@@H]3C=CC4=CC(=O)CC[C@@]4(C)[C@@H]3CC[C@]12C [ccrp3, Dydrogesterone] | Neither compound demonstrates any significant effect on the melting temperatures | do not affect the luciferase activities | 55.78±0.3 | No effect on luciferase activity was detected | None of the compounds affected PNR transcriptional activity
